Experimental data from patent publication US5607927A, “Cephalosporin derivative” (Meiji Seika Kaisha, Ltd., priority 1992, dated 1997).
≈ marks a conversion by molar mass, not a printed value.

What was measured:
[1] = acute toxicity (LD50) i.v. in mice; details: mouse, in vivo, iv
[2] = concentration in blood after subcutaneous injection (serum concentration by HPLC); format: in vivo; details: sc, ICR mice, male, 0.5 mg per mouse subcutaneous; for Cmax: 4 weeks old, serum by HPLC, read-out: Maximum concentration in blood; for half-life / AUC: serum, Gauss-Newton method; for half-life: read-out: Half-life period (converted); for AUC: sampling 5 minutes to 2 hours, read-out: AUC (area under the plasma concentration-time curve)
Procedure: This test example illustrates that the following typical examples of the compound of the present invention can give and maintain their concentrations in blood at high levels after subcutaneous injection. Test Compounds:
The test was carried out in the following manner. Using five male mice of ICR line (4 weeks old, 1 individual/group for blood collection), 0.5 mg of each test compound dissolved in 0.2 ml of sterile water for injection use was administered to each mouse by subcutaneous injection. Blood collection was carried out after 5 minutes, 15 minutes, 30 minutes, 1 hour and 2 hours after the administration. Each of the thus collected blood samples was subjected to ordinary post-treatment, and then serum concentration of the cephem compound was measured by making use of HPLC. Half-life period and AUC (area under the plasma concentration-time curve) as pharmacokinetic parameters were calculated in accordance with the Gauss-Newton method.

M. morganii 1510/S-l = assay: minimum growth inhibitory concentration, ordinary serial dilution technique; format: cell-based; details: Morganella morganii, 1510/SL, 10^6 CFU/ml, 35° C., 18 to 20 hours
Procedure: (§1) In this test example, antibacterial activities of the following typical examples of the compound (I) of the present invention upon various bacterial species are illustrated by showing their minimum growth inhibitory concentrations measured by the ordinary serial dilution technique. The measurement was made by inoculating 10^6 CFU/ml of each test strain on a Sensitivity Plate Medium N (Nissui Pharmaceutical Co., Ltd.) and culturing the inoculated cells at 35° C. for 18 to 20 hours.

Sta. aureus 209P JC-1 = assay: as above; format: cell-based; details: Staphylococcus aureus, 10^6 CFU/ml, Sensitivity Plate Medium N, 35° C., 18 to 20 hours
Procedure: as §1

P. vulgaris GN 76 = assay: as above; format: cell-based; details: Proteus vulgaris, GN76, 10^6 CFU/ml, 35° C., 18 to 20 hours
Procedure: as §1

[3] = test system: Sta. epidermidis ATCC 14990; assay: as above; format: cell-based; details: Staphylococcus epidermidis, ATCC14990, 10^6 CFU/ml, 35° C., 18 to 20 hours
Procedure: as §1

K. pneumoniae PCI 602 = assay: as above; format: cell-based; details: Klebsiella pneumoniae, PCI602, 10^6 CFU/ml, 35° C., 18 to 20 hours
Procedure: as §1

E. coli NIHJ JC-2 = assay: as above; format: cell-based; details: Escherichia coli, NIHJJC2, 10^6 CFU/ml, 35° C., 18 to 20 hours
Procedure: as §1

[4] = test system: Sta. aureus M 133 (methicillin-resistant); assay: as above; format: cell-based; details: Staphylococcus aureus, 10^6 CFU/ml, 35° C., 18 to 20 hours
Procedure: as §1, with “hours. Test Compounds:” for “hours.”
(§2) Note: (*), methicillinresistant Staphylococcus aureus

[5] = test system: Sta. aureus M 126 (methicillin-resistant); assay: as above; format: cell-based; details: Staphylococcus aureus, 10^6 CFU/ml, 35° C., 18 to 20 hours
Procedure: as §1, with “hours. Test Compounds:” for “hours.”
as §2

| Compound | LD50 [1] | Cmax [2] | half-life [2] | AUC [2] | MIC (M. morganii 1510/S-l) | MIC (Sta. aureus 209P JC-1) | MIC (P. vulgaris GN 76) | MIC [3] | MIC (K. pneumoniae PCI 602) | MIC (E. coli NIHJ JC-2) | MIC [4] | MIC [5] |
| --- | --- | --- | --- | --- | --- | --- | --- | --- | --- | --- | --- | --- |
| CO/N=C(\C(=O)NC1C(=O)N2C(C(=O)O)=C(Sc3nc4ccccc4s3)CS[C@H]12)c1nsc(N)n1 (some centres unmarked) [Compound A, 7-{(Z)-2-(5-amino-1,2,4-thiadiazol-3-yl)-2-methoxyiminoacetamido}-3-(benzothiazol-2-yl)thio-3-cephem-4-carboxylic acid] | 1000 to 1500 mg/kg | 126 µg/mL | 108 min | 343 µg·h/mL | 1.56 µg/mL (≈ 2.84 µM) | 0.39 µg/mL (≈ 0.71 µM) | 3.13 µg/mL (≈ 5.69 µM) | 0.39 µg/mL (≈ 0.71 µM) | 3.13 µg/mL (≈ 5.69 µM) | 3.13 µg/mL (≈ 5.69 µM) | 1.56 µg/mL (≈ 2.84 µM) | 3.13 µg/mL (≈ 5.69 µM) |
| CO/N=C(\C(=O)NC1C(=O)N2C(C(=O)O)=C(Sc3nc4cccnc4s3)CS[C@H]12)c1nsc(N)n1 (some centres unmarked) [Compound B, 7-{(Z)-2-(5-amino-1,2,4-thiadiazol-3-yl)-2-methoxyiminoacetamido}-3-(thiazolo[5,4-b]pyridin-2-yl)thio-3-cephem-4-carboxylic acid] | – | 110 µg/mL | 78 min | 230 µg·h/mL | 50 µg/mL (≈ 90.8 µM) | 0.78 µg/mL (≈ 1.42 µM) | 12.5 µg/mL (≈ 22.7 µM) | 0.39 µg/mL (≈ 0.708 µM) | 3.13 µg/mL (≈ 5.68 µM) | 3.13 µg/mL (≈ 5.68 µM) | 3.13 µg/mL (≈ 5.68 µM) | 12.5 µg/mL (≈ 22.7 µM) |
| CO/N=C(\C(=O)NC1C(=O)N2C(C(=O)O)=C(Sc3nc4ccccc4o3)CSC12)c1csc(N)n1 (centres unmarked) [Compound C, 7-{(Z)-2-(2-aminothiazol-4-yl)-2-methoxy-iminoacetamido}-3-(benzoxazol-2-yl)thio-3-cephem-4-carboxylic acid] | – | 141 µg/mL | 126 min | 442 µg·h/mL | – | – | – | – | – | – | – | – |
